Data reported in ChEMBL document CHEMBL3784985, “Thiadiazole derivatives as New Class of β-glucuronidase inhibitors” (Bioorg Med Chem, 2016).

Each compound was assayed against T1, Beta-glucuronidase (Bos taurus, UniProt A3KMY8) (assay: Inhibition of bovine beta-glucuronidase assessed as p-nitrophenol formation preincubated for 30 mins followed by addition of p-nitrophenyl-beta-D-glucuronide by spectrophotometric analysis).
T1 sequence (A3KMY8 whole entry): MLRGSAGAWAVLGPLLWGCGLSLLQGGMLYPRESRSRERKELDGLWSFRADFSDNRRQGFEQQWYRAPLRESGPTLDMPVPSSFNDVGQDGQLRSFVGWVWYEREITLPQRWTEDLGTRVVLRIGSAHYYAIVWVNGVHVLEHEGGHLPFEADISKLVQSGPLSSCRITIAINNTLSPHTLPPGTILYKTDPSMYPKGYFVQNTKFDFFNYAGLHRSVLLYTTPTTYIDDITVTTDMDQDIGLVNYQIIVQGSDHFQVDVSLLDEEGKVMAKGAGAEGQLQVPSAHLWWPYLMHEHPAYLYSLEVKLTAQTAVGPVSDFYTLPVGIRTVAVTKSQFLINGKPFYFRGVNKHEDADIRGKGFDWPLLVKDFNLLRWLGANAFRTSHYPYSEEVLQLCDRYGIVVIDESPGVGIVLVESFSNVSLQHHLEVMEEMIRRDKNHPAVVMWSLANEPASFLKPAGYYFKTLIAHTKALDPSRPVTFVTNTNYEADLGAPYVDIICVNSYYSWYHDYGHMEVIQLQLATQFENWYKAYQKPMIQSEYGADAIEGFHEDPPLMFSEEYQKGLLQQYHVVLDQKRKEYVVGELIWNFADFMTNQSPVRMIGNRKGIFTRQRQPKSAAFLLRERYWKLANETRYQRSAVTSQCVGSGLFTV

Structure (SMILES) | IC50 [µM]
Cc1ccc(Nc2nnc(-c3ccc(Br)cc3)s2)cc1 | 28.6
COc1ccccc1-c1nnc(Nc2cccc(Br)c2)s1 | 49.2
Clc1ccc(Nc2nnc(-c3ccccc3)s2)cc1Cl | 6.28
Brc1ccc(-c2nnc(Nc3cccc(Br)c3)s2)cc1 | 17.3
COc1ccccc1-c1nnc(Nc2ccc(C)cc2)s1 | 58.1
COc1ccc(-c2nnc(Nc3ccc(C)cc3)s2)c(OC)c1 | 39.3
CC(C)(C)c1ccc(-c2nnc(Nc3ccc(Br)cc3)s2)cc1 | 32.2
COc1cc(OC)cc(-c2nnc(Nc3ccc(Cl)c(Cl)c3)s2)c1 | 19.2
COc1cc(OC)cc(-c2nnc(Nc3ccc(C)cc3)s2)c1 | 50.3

Continued, values first:

IC50 [µM] | Structure (SMILES)
48.4 | Cc1ccc(Nc2nnc(-c3ccccc3)s2)cc1
40.2 | Brc1ccc(-c2nnc(Nc3ccccc3)s2)cc1
15.6 | Cc1ccc(-c2nnc(Nc3ccc(Cl)c(Cl)c3)s2)c(C)c1
36.1 | Cc1ccc(-c2nnc(Nc3cccc(Br)c3)s2)c(C)c1
29.7 | COc1ccc(-c2nnc(Nc3ccc(Br)cc3)s2)c(OC)c1
22.6 | COc1ccc(Nc2nnc(-c3ccccc3Cl)s2)cc1
26.3 | Cc1ccc(Nc2nnc(-c3ccc(C(C)(C)C)cc3)s2)cc1
7.16 | Clc1ccc(Nc2nnc(-c3ccc(Br)cc3)s2)cc1Cl
16.7 | Cc1ccc(Nc2nnc(-c3ccccc3Cl)s2)cc1
34.2 | Cc1ccc(Nc2nnc(-c3ccc(C)cc3C)s2)cc1
31.1 | COc1cccc(Nc2nnc(-c3ccc(Br)cc3)s2)c1
8.96 | Clc1ccccc1-c1nnc(Nc2cccc(Br)c2)s1
22.6 | COc1ccccc1-c1nnc(Nc2ccc(Cl)c(Cl)c2)s1
